Experimental data taken from article doi:10.1101/2025.02.11.637513v1 (bioRxiv, 2025).
Non-standard residues stand in square brackets, D forms with d. No end group written: not given here. *: point of attachment. Phe(F5) = N[C@@H](Cc1c(F)c(F)c(F)c(F)c1F)C(=O)O; Bip = N[C@@H](Cc1ccc(-c2ccccc2)cc1)C(=O)O; 1Nal = N[C@@H](Cc1cccc2ccccc12)C(=O)O; Met(O2) = CS(=O)(=O)CC[C@H](N)C(=O)O; Hyp = O=C(O)[C@@H]1C[C@@H](O)CN1; Tic = O=C(O)[C@@H]1Cc2ccccc2CN1; Tle = CC(C)(C)[C@H](N)C(=O)O; Abu = CC[C@H](N)C(=O)O; Bn = c1ccc(C*)cc1

How the values were obtained:
Assay in all cases: tetrapeptide-ACC substrate cleavage kinetics
Format in all cases: biochemical
[1] = target: T1, human caspase-1 (Homo sapiens, UniProt P29466); settings: Ac-P4-P3-P2-Asp-ACC substrate, 0.05-500 μM, 2-15 nM enzyme, 37°C, triplicate
T1 sequence (P29466 120-297 limits assumed): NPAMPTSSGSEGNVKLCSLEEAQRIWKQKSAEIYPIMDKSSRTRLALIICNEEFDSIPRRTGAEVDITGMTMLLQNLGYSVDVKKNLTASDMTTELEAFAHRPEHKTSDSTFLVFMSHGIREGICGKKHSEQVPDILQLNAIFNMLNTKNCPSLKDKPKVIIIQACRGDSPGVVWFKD
T1 sequence (P29466 317-404 limits assumed): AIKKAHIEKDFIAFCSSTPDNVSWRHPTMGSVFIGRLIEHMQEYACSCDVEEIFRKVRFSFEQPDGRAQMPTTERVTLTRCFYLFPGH

[2] = target: T2, human caspase-4 (Homo sapiens, UniProt P49662); settings: Ac-P4-P3-P2-Asp-ACC substrate, 0.05-500 μM, 35-200 nM enzyme, 37°C, triplicate
T2 sequence (P49662 81-270 limits assumed): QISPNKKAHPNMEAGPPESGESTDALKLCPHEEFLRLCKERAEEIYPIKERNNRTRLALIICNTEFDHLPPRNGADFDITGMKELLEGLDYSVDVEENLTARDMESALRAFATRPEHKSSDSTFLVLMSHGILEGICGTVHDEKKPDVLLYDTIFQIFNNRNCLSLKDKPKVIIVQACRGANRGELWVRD
T2 sequence (P49662 290-377 limits assumed): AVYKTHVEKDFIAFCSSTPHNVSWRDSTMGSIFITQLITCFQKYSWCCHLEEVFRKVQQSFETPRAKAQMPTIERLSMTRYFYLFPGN

[3] = target: T3, human caspase-5 (Homo sapiens, UniProt P51878); settings: Ac-P4-P3-P2-Asp-ACC substrate, 0.05-500 μM, 20-250 nM enzyme, 37°C, triplicate
T3 sequence (P51878 137-327 limits assumed): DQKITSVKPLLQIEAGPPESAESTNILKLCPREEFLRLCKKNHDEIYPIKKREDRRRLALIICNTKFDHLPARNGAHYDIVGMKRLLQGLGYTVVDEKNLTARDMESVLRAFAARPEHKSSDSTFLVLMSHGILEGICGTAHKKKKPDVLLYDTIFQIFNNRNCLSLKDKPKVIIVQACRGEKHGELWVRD
T3 sequence (P51878 347-434 limits assumed): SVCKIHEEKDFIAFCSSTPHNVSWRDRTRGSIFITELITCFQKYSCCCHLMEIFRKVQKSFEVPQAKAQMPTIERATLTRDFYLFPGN

[4] = target: T4, human caspase-3 (Homo sapiens, UniProt P42574); settings: Ac-P4-P3-P2-Asp-ACC substrate, 0.05-500 μM, 3-35 nM enzyme, 37°C, triplicate
T4 sequence (P42574 29-175 limits assumed): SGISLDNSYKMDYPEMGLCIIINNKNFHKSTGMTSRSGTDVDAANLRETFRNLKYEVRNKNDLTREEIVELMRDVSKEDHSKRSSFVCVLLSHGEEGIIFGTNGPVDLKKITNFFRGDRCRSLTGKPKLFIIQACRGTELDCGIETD
T4 sequence (P42574 176-277 limits assumed): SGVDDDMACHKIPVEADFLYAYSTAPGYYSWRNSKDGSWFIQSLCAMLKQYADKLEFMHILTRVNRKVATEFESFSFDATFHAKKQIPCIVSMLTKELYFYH

[5] = target: T5, human caspase-7 (Homo sapiens, UniProt P55210); settings: Ac-P4-P3-P2-Asp-ACC substrate, 0.05-500 μM, 40-400 nM enzyme, 37°C, triplicate
T5 sequence (P55210 24-198 limits assumed): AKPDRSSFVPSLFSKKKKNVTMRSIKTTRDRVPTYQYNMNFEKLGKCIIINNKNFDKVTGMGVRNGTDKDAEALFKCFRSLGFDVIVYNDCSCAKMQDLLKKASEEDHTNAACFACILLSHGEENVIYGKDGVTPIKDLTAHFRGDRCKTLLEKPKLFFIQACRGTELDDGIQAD
T5 sequence (P55210 207-303 limits assumed): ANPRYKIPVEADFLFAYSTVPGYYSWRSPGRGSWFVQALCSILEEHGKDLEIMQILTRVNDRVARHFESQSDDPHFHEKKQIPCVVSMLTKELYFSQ

[6] = target: human caspase-8 (Homo sapiens, UniProt Q14790); settings: Ac-P4-P3-P2-Asp-ACC substrate, 0.05-500 μM, 6-42 nM enzyme, 37°C, triplicate
human caspase-8, sequence (Q14790 217-374 limits assumed): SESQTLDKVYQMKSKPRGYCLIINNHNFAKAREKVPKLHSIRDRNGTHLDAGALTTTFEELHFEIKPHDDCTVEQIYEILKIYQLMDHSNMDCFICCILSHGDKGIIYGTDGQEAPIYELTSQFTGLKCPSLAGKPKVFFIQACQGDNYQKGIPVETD
human caspase-8, sequence (Q14790 385-479 limits assumed): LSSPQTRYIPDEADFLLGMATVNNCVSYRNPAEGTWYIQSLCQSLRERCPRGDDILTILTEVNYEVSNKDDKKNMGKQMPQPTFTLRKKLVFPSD

[7] = target: T6, human caspase-9 (Homo sapiens, UniProt P55211); settings: Ac-P4-P3-P2-Asp-ACC substrate, 0.05-500 μM, 20-150 nM enzyme, 37°C, triplicate
T6 sequence (P55211 1-315 limits assumed): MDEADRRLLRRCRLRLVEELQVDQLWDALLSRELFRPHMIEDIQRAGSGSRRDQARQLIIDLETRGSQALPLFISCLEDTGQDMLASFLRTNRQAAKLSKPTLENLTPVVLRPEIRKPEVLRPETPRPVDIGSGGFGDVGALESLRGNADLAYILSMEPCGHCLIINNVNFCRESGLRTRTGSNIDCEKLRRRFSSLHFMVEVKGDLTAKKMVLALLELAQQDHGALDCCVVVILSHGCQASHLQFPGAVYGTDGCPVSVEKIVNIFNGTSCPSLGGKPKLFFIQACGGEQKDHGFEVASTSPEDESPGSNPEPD
T6 sequence (P55211 331-416 limits assumed): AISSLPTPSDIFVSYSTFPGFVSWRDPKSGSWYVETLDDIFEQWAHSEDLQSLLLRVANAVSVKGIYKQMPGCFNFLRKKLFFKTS

| Substance | kcat/KM caspase-1 [1] | kcat/KM caspase-4 [2] | kcat/KM caspase-5 [3] | kcat/KM caspase-3 [4] | kcat/KM caspase-7 [5] | kcat/KM caspase-8 [6] | kcat/KM caspase-9 [7] |
| --- | --- | --- | --- | --- | --- | --- | --- |
| VY(Bn)HD | 7 300 M^-1s^-1 | 350 M⁻¹ s⁻¹ | 660 M⁻¹ s⁻¹ | 6 900 M^-1s^-1 | 180 M⁻¹ s⁻¹ | 2 610 M^-1s^-1 | 1 790 M^-1s^-1 |
| V[Bip]HD | 9 100 M^-1s^-1 | 1 640 M^-1s^-1 | 380 M⁻¹ s⁻¹ | 15 820 M^-1s^-1 | 190 M⁻¹ s⁻¹ | 2 710 M^-1s^-1 | 1 790 M^-1s^-1 |
| V[Hyp](Bn)HD | < 10 M⁻¹ s⁻¹ | < 10 M⁻¹ s⁻¹ | < 10 M⁻¹ s⁻¹ | 510 M⁻¹ s⁻¹ | 10 M⁻¹ s⁻¹ | 3 260 M^-1s^-1 | 660 M⁻¹ s⁻¹ |
| Val-Asp-His-Asp | 6 950 M^-1s^-1 | 880 M⁻¹ s⁻¹ | 4 830 M^-1s^-1 | 19 860 M^-1s^-1 | 910 M⁻¹ s⁻¹ | 16 670 M^-1s^-1 | 6 220 M^-1s^-1 |
| Val-Gly-His-Asp | 2 000 M^-1s^-1 | 480 M⁻¹ s⁻¹ | 390 M⁻¹ s⁻¹ | 7 360 M^-1s^-1 | 90 M⁻¹ s⁻¹ | 1 110 M^-1s^-1 | 3 800 M^-1s^-1 |
| Val-Trp-His-Asp | 7 700 M^-1s^-1 | 1 010 M^-1s^-1 | 60 M⁻¹ s⁻¹ | 9 980 M^-1s^-1 | 210 M⁻¹ s⁻¹ | 3 500 M^-1s^-1 | 8 880 M^-1s^-1 |
| Val-hGlu-Thr(Bzl)-Asp | 21 700 M^-1s^-1 | 1 840 M^-1s^-1 | 5 430 M^-1s^-1 | 163 200 M^-1s^-1 | 16 800 M^-1s^-1 | 85 540 M^-1s^-1 | 6 770 M^-1s^-1 |
| W(Me)Q[Tic]D | 268 600 M^-1s^-1 | 11 300 M^-1s^-1 | 14 500 M^-1s^-1 | 4 340 M^-1s^-1 | 290 M⁻¹ s⁻¹ | 2 580 M^-1s^-1 | 1 140 M^-1s^-1 |
| WT(Bn)HD | 644 300 M^-1s^-1 | 6 010 M^-1s^-1 | 10 640 M^-1s^-1 | 2 760 M^-1s^-1 | 120 M⁻¹ s⁻¹ | 8 230 M^-1s^-1 | 11 220 M^-1s^-1 |
| W[Met(O2)]HD | 547 600 M^-1s^-1 | 9 620 M^-1s^-1 | 15 430 M^-1s^-1 | 4 970 M^-1s^-1 | 60 M⁻¹ s⁻¹ | 2 380 M^-1s^-1 | 6 700 M^-1s^-1 |
| W[Tle]HD | 271 900 M^-1s^-1 | 10 640 M^-1s^-1 | 12 930 M^-1s^-1 | 600 M⁻¹ s⁻¹ | 40 M⁻¹ s⁻¹ | 1 240 M^-1s^-1 | 10 220 M^-1s^-1 |
| Y(Me)QTD | 105 200 M^-1s^-1 | 810 M⁻¹ s⁻¹ | 2 420 M^-1s^-1 | 8 740 M^-1s^-1 | 1 530 M^-1s^-1 | 2 670 M^-1s^-1 | 550 M⁻¹ s⁻¹ |
| YT(Bn)HD | 201 400 M^-1s^-1 | 1 260 M^-1s^-1 | 6 920 M^-1s^-1 | 4 500 M^-1s^-1 | 270 M⁻¹ s⁻¹ | 4 760 M^-1s^-1 | 7 970 M^-1s^-1 |
| Y[Phe(F5)]HD | 161 900 M^-1s^-1 | 2 270 M^-1s^-1 | 14 900 M^-1s^-1 | 8 500 M^-1s^-1 | 210 M⁻¹ s⁻¹ | 3 150 M^-1s^-1 | 7 300 M^-1s^-1 |
| [1Nal]Q[Abu]D | 168 100 M^-1s^-1 | 2 190 M^-1s^-1 | 4 640 M^-1s^-1 | 1 660 M^-1s^-1 | 220 M⁻¹ s⁻¹ | 4 420 M^-1s^-1 | 100 M⁻¹ s⁻¹ |
